# Assay results from patent EP0642343B1, “Acridine carboxamides for the treatment of cancer” (XENOVA LIMITED, priority 1992, dated 1993).
# Where two headings read alike, the source gives them in different places.
# What was measured:
# [1] = system: human melanoma cell line designated WADH; experiment: Tumour growth delay, human melanoma xenograft in nude mice; type: in vivo, nude (athymic) mice; settings: tumours 4-7 mm; ip divided dose 2 x 100 mg/kg at 0 and 60 min, repeated after 7 days
# Method: Colon 38 carcinoma was obtained from the Mason Research Institute (Worchester, MA, USA) and was grown in BDF1 hosts. Tumour fragments (1 mm^3) were implanted subcutaneously in anaesthetised mice. Tumours had grown to the appropriate size 9 days after implantation. A melanoma tumour line (WADH) was developed in the Cancer Research Laboratory. Tumour cells were grown in culture and 1 x 10^6 cells were implanted intradermally into the flank of nude (C57BI/J genetic background) mice. Mice were grown under sterile surroundings until tumours were of appropriate size.
# Tumours were measured 3x (colon 38) or 2x (xeno-graft) weekly with callipers and tumour volumes calculated as 0.52a^2b, where a and b were the minor and major tumour axes. Tumour growth delays were measured at a time when tumour volumes of treated and control animals had increased by 4-fold.
# A further experiment was carried out using human melanoma line, implanted subcutaneously in nude (athymic) mice using an inoculation of one million cells of a human melanoma cell line designated WADH. Treatment was started when the tumours were 4-7 mm in diameter. DACA was administered ip as a divided dose (2 x 100 mg/kg body weight at 0 and 60 min) and a second similar administra-tion (2 x 100 mg/kg) was given after 7 days. A growth delay of 30 days was obtained (Figure 6).
# [2] = system: primary human melanoma cultures; experiment: cells; settings: for IC50: Homo sapiens
# Method: Acridine carboxamide hydrochloride, synthesised in the Cancer Research Laboratory (Atwell G.J., et al., J.Med. Chem. 1987, 30, 664-669), and amsacrine isethionate, obtained from the Parke-Davis Division of the Warner-Lambert Company, Ann Arbor, USA, were dissolved in 50% v/v aqueous ethanol to make stock solutions of 2-5 mmol/l and stored at -20°C. Other cytotoxic drugs were available either from the NCI repository (Monks A., et al., J. Natl. Cancer Inst. 1991, 83, 757-766) or were obtained as described in Marshall E.S., et al., J. Natl. Cancer Inst. 1992, 84, 341-344 and Finlay, et al., Eur. J. Cancer din. Oncol. 1986, 22, 655-662. Cell lines were from the NCI repository except for MM-96 (Dr. R. Whitehead, Ludwig Institute, Melbourne, Australia), FME (Dr. K.M. Tveit, Norwegian Radium Hospital, Oslo, Norway) and Jurkat normal and multidrug-resistant lines (Dr. K. Snow and Dr. W. Judd, Department of Cellular and Molecular Biology, University of Auckland). Melanoma tissue was obtained from patients with pathologically confirmed metastatic and recurrent melanomas under Auckland Hospital Ethical Committee guidelines. Cells were released by digestion of tissue (at 50 mg.ml^-1) with collagenase (1 mg.ml^-1) and DNAase (50 µg.ml^-1) with continuous stirring at 37°C for 1 to 2 hours, and cultured as previously described (Marshall E.S., et al., J. Natl. Cancer Inst. 1992, 84, 341-344).
# Tumour cell lines were cultured in 96-well plates. Growth of NCI cell lines was assessed using sulpho-rhodamine B staining (Skehan P., et al., J. Natl. Cancer Inst. 1990, 82, 1107-1112), that of the leukaemia lines with (4,5-dimethylthiazole-2-yl)-2,5-diphenyltetrazolium (MTT) staining (Mosmann T., J. Immun. Methods 1983, 65, 55-63) and that of the primary human tumour material by ^3H-thymidine incorporation (Marshall E.S., et al., J. Natl. Cancer Inst. 1992, 84, 341-344). Primary tumour material was cultured in 96-well plates in which the wells were coated with agarose to inhibit selectively the growth of normal cells. (Marshall E.S., et al., J. Natl. Cancer Inst. 1992, 84, 341-344). Primary cultures were incubated at 37°C in sealed perspex boxes containing a humidified atmosphere of 5% CO2 and 5% O2 in nitrogen for 7 days. 5-Methyl-[^3H]-thymidine (20 Ci.mmol^-1; 0.04 µCi per well), thymidine and 5-fluorodeoxyuridine (each at final concentrations of 0.5 µM) were added in medium to cultures (20 µl per well) 24 h before terminating the cultures. Cells were aspirated on to glass fibre filters using a multiple automated sample harvester (LKB Wallac OY Beta Harvester). The filter discs were washed for 15 seconds with water, dried, and the amount of tritium retained quantified by liquid scintillation.
# IC50 values were defined as in Paull K.D., et al., J. Natl. Cancer Inst. 1989, 81:1088-1092, where growth, as indicated by staining or thymidine incorporation, corresponded to 50% of that of the control cultures. […] Variances of DELTA values were expressed as standard deviations in log10 units. Comparison of DELTA values was made using Pearson correlation coefficients. Resistance factors were defined as the ratios of IC50 values between the resistant line and the parent line. Statistical evaluation was performed either with NCI programmes, with RS/1 software (BBN Research Systems, Cambridge, MA, USA), or with Sigmaplot (Jandel Scientific, San Rafael, CA, USA).
# DACA was also compared in a series of 12 primary melanoma cultures. Tissue was excised from human malignant melanomas and cultured using a modified 96-well assay system in which the cells were cultured on agarose and assayed for proliferation using the ^3H-thymidine incorporation assay as described in Marshall E.S., et al., J. Natl. Cancer Inst. 1992, 84, 341-344.
# Daudi = experiment: Growth inhibition of leukaemia line, continuous exposure, MTT staining; type: cell-based; settings: Homo sapiens
# Method: (§1) Tumour cell lines were cultured in 96-well plates. […] Primary cultures were incubated at 37°C in sealed perspex boxes containing a humidified atmosphere of 5% CO2 and 5% O2 in nitrogen for 7 days. 5-Methyl-[^3H]-thymidine (20 Ci.mmol^-1; 0.04 µCi per well), thymidine and 5-fluorodeoxyuridine (each at final concentrations of 0.5 µM) were added in medium to cultures (20 µl per well) 24 h before terminating the cultures.
# (§2) 1989, 81:1088-1092, where growth, as indicated by staining or thymidine incorporation, corresponded to 50% of that of the control cultures.
# (§3) The effect of DACA on the growth of cultured cells was assessed by continuous drug exposure. […] These values were similar to those of other human leukaemia cell lines, which ranged from 290 to 760 nM (CEM-CCRF, 410 nM; MOLT-4, 290 nM; Daudi, 400 nM; Raji, 370 nM, U937, 590 nM; HL-60, 620 nM; K-562, 760 nM). Four multidrug-resistant cell lines, developed from JL and JB1 by in vitro exposure to increasing concentrations of doxorubicin (LD and B1D) or amsacrine (LA and B1A) (Finlay G.J., et al., J. Natl. Cancer Inst. 1990, 82, 662-667, Snow K., et al., Br. J. Cancer 1991, 63, 17-28) were tested.
# K-562 = experiment: as above; type: cell-based; settings: Homo sapiens, K562
# Method: as §1, §2, §3
# [3] = system: human Jurkat T cell leukaemia line, diploid (L); experiment: as above; type: cell-based; settings: continuous drug exposure
# Method: as §1, §2, §3
structure (smiles),measurement,setting,value
"CN(C)CCNC(=O)c1cccc2cc3ccccc3nc12 [DACA, N-[2-(dimethylamino)ethyl]acridine-4-carboxamide]",Growth delay,[1],30 days
same,IC50,[2]; read-out: IC50 values,200 to 1500 nM
same,IC50,[2]; read-out: mean IC50,590 nM
same,proportions of cells killed,"[2]; human, primary melanoma cultures",> 99%
same,IC50,Daudi,400 nM
same,IC50,K-562,760 nM
same,IC50,[3],380 nM
